What all share (type): cell-based, murine
In data set [1] the test system is cytochrome P450 activity (CYP1A1). Nature of the data set: EROD assay for inducible cytochrome P450 activity. The settings on record: two-day exposure to 3-methylcholanthrene, day 36.
Procedure: Day-thirty-four ES-derived cells were stimulated with 2 mM 3-methycholanthrene (3-MC) for two days. The conversion of ethyoxyresorufin to fluorescent resorufin was assayed on day thirty-six of culture. Values represent mean±SEM of three experiments and repeated in duplicate.
The EROD assay was used to measure inducible cytochrome P450 activity (CYP1A1) of the hepatocyte-like cells.
The drug metabolizing activity of the ES cell-derived hepatocytes were evaluated using an ethoxyresorufin 0-de-ethylase (EROD) assay. Day thirty-four ES cells were stimulated with 2 mM 3 methycholanthrene (3-MC) for two days. On day 36, the media was replaced with 10 μM ethoxyresorufin (Invitrogen) and 80 μM dicumarol (Sigma) in Earle's Balanced Salt Solution. Solution samples were collected at 5, 15, 25, and 35 minutes after the introduction of substrates. The increase in fluorescence intensity caused by conversion of ethyoxyresorufin to fluorescent resorufin estimates the CYP1A1 activity in hepatocytes.
Data set [2] has as its system ESDE cells. Nature of the data set: Urea secretion of ESDE cells into culture media (colorimetric assay). The settings on record: DMSO-stimulated ESDE cells. Here is the method: (§1) FIGS. 3A and 3B are bar graphs showing albumin and urea secretion rates of hepatocyte-like cells. Albumin secretion was measured at various timepoints by ELISA (3A). Urea secretion was measured with a colorimetric assay (3B). […] Urea and albumin secretion rates increased up to forty days of culture. […] Values represent mean±SD of two experiments and repeated in triplicate.
(§2) The maturation of ESDE cells into functional hepatocytes was evaluated by measuring the secretion of albumin and urea into the culture media (FIG. 3). […] Neither albumin nor urea secretion was detectable before day twenty in any of the other conditions tested.
(§3) At day fourteen of culture, the ES cells were stimulated with the chemical agonists listed on Table 1 (above) in high glucose or low glucose DMEM supplemented with 10% FBS and 0.2 μM dexamethasone. The media with chemical agonists were exchanged every other day until day twenty. At day twenty of culture, the ES cells were cultured without the chemical agonists in high glucose or low glucose DMEM supplemented with 10% FBS and 0.2 μM dexamethasone. […]
(§4) Collected medium samples were analyzed for secreted concentrations of mouse albumin by ELISA. […] Urea content was determined with diacetyl monoxime using a commercially available kit (StanBio Laboratory, Boerne, Tex.). The absorbance was measured with a Thermomax microplate reader (Molecular Devices, Sunnyvale, Calif.).

In data set [3] the test system is ESDE cells. Nature of the data set: Albumin secretion of ESDE cells into culture media (ELISA). The conditions noted are these: DMSO induction, low glucose. Here is the method: as §1, §2, §3, §4
Background: In an ELISA, binding on a coated surface is turned into a signal by an enzyme label.

For data set [4], the system named is ESDE cells. Nature of the data set: RT-PCR gene expression of ESDE cells after agonist induction. The settings on record: for Transcriptional expression of tyrosine aminotransferase (Tat) / expression of albumin (Alb) and cytochrome P450 subunit 3a13 (Cyp3a13) mRNA: RT-PCR; for Transcriptional expression of tyrosine aminotransferase (Tat): over culture time; for expression of albumin (Alb) and cytochrome P450 subunit 3a13 (Cyp3a13) mRNA: day twenty-two, increased at day thirty. Here is the method: Similarly, glucose-6-phosphatase (G6pc) mRNA expression could only be detected with DMSO or RA stimulation. […] Visceral endoderm marker Sox7 was also weakly expressed in every condition except with DMSO induction.
At day fourteen of culture, the ES cells were stimulated with the chemical agonists listed on Table 1 (above) in high glucose or low glucose DMEM supplemented with 10% FBS and 0.2 μM dexamethasone. The media with chemical agonists were exchanged every other day until day twenty. At day twenty of culture, the ES cells were cultured without the chemical agonists in high glucose or low glucose DMEM supplemented with 10% FBS and 0.2 μM dexamethasone. The ES cells were cultured up to day fifty with media exchange every other day.
RNA isolation was performed using the Nucleospin RNAII protocol (Clontech, Mountain View, Calif., USA). Following the removal of genomic DNA with DNase, the column was washed and RNA was eluted with distilled water. The RNA purity was quantified using the absorbance ratio at 260 nm (nucleic acids) and 280 nm (protein) and was greater than 1.9. One-Step RT-PCR kit (Qiagen, Valencia, Calif., USA) was used to analyze gene expression. Reactions were initiated using 10 ng RNA and 0.6 μM primer. RT reaction was conducted at 50° C. and 95° C. for 15 min. Three-step cycling was performed: denaturation at 94° C. for 30 s, annealing at 55° C. for 30 s, and extension at 72° C. for 1 min, with a final extension time of 10 min at 72° C. The number of cycles varied between 30 and 35. Following PCR, samples were run on a 2% agarose gel, stained with ethidium bromide, and imaged using the Fluor-X Multiimager (Bio-Rad, Hercules, Calif., USA). Mouse liver total RNA (Ambion, Austin, Tex., USA) was used as a control for hepatocyte gene expression. Markers: Foxa2, AFP, Sox 17, Albumin, GATA1, Runx2, Foxf1, NKx2.5, Tal1, Pax 6, AAT, CK8, CK18, TTR, CYP3A13, Brachyury, Goosecoid, β-actin.

Data set [5] has as its system ESDE cells. Nature of the data set: Glycogen staining (periodic acid-Schiff). The settings on record: after thirty-two days of differentiation. On the procedure:
Rat primary hepatocytes are capable of secreting albumin at a rate of approximately 2.0 μg/hour/10^6 cells, and the mouse hepatocarcinoma cell line Hepal-6 can produce albumin at a rate of 4.7 μg/hour/10^6 cells. The ability of the ES-derived hepatocyte-like cells to produced and store glycogen was assessed using a periodic acid-Schiff stain. […] The capacity for the hepatocyte-like cells to actively synthesize glycogen was seen after the culture media was switched from the low-glucose differentiation media to high-glucose DMEM supplemented with 10% FBS and 0.2 μM dexamethasone for two days. More intense magenta staining of the hepatocyte-like cells was found after the two-day incubation in high-glucose media.
Periodic acid-Schiff staining kit was purchased from Sigma. Cells were fixed with 4% paraformaldehyde in PBS for 20 minutes at room temperature. Staining procedures were performed according to manufacturer's instruction.

The test system of data set [6] is albumin promoter-driven GFP expression in ES-derived endoderm (ESDE) cells. Nature of the data set: Screening of agonists for albumin promoter-driven GFP expression in ES-derived endoderm (ESDE) cells, flow cytometry. The conditions noted are these: agonist d14-d20, 2% DMSO, 1 μM Azacytidine, 1 μM Retinoic Acid, 100 μM SNAP, 1 μM A23187, 1 nM vasopressin, 200 μM IBMX, 2 mM phenobarbital, 10 mM nicotinamide, 0.1 μM PGE2; for Cell fraction of day 30 ES-derived cells positive for albumin promoter-driven GFP expression, High Glucose: high glucose DMEM; for Cell fraction of day 30 ES-derived cells positive for albumin promoter-driven GFP expression, Low Glucose: low glucose DMEM. Here is the method: A transgenic ES cell for enhanced green fluorescence protein (GFP) driven by the albumin promoter was used or the purpose of quickly screening different stimulants for hepatic differentiation. After a total of 30 days of differentiation, the various agonists were evaluated for their ability to induce ES-derived endoderm (ESDE) to express the albumin gene. When the ESDE cells were cultured in high glucose conditions, none of the agonists tested were able to increase cell population fraction positive for GFP expression over 10% (Table 1):
Additionally, for the purpose of quickly screening different stimulants for hepatic differentiation, a transgenic ES cell for enhanced green fluorescence protein (GFP) driven by the albumin promoter was used for these preliminary studies. The transgenic murine J1 cell line was obtained from the National Cancer Center Research Institute (Tokyo, Japan). The murine ES cell line D3 (ATCC, Manassas, Va.) was also used to assess the differentiation of ES cells into endoderm and hepatic lineage cells. Undifferentiated ES cells were cultured in Knockout DMEM (Gibco), supplemented with 15% replacement serum, 4 mM L-glutamine (Gibco), 100 U/mL penicillin (Gibco), 100 U/ml streptomycin (Gibco), 10 μg/mL gentamycin (Gibco), 1000 units/mL Leukemia Inhibitory Factor (LIF; Chemicon International, Temecula, Calif.), and 0.1 mM 2-mercaptoethanol (Gibco) on 0.1% gelatin-coated T-75 tissue culture flasks. Culture medium was replaced every day and cells were passaged at dilutions ranging from 1:5 to 1:20 at least once a week. Cells were cultured at 37° C. and in a 5% CO2 incubator.
To isolate the ES-derived cells in co-culture, the ES cells cultured on top of collagen sandwiched hepatocytes were incubated with dispase (1 mg/mL) (Gibco) for 30-60 min at 37° C. After incubation, the ES-derived cells were detached by gentle pipetting. The collagen-sandwiched hepatocytes remained at the bottom of the dish, thus allowing separation of the ES-derived cells from the primary hepatocytes. The isolated ES-derived cells were replated (day 10) on collagen gel coated 35-mm dishes at a density of 400,000 ES-derived cells per dish and cultured in high glucose DMEM supplemented with 10% FBS, 100 ng/mL oncostatin-M (Sigma), 0.2 μM dexamethasone (Sigma), and insulin/transferrin/selenious acid (5 μg/mL, 5 μg/mL, 5 ng/mL, respectively) (BD Biosciences, San Jose, Calif.). The replated cells were allowed to recover for four days before induction of hepatocyte differentiation. […]
Alternatively, Cells were detached from the collagen surface using 10 U/ml collagenase and 1 U/ml dispase in serum-free DMEM for 30 minutes. […] Collected cells were analyzed by flow cytometry (Epics Altra; Becton Dickinson). FACS data was analyzed using CellQuest software. […]

As to `C[S+](C)[O-]` [DMSO, Dimethyl sulfoxide], in data set [1], the “EROD activity compared to cells cultured in high glucose media without DMSO stimulation” value came to 20 fold and the “EROD activity over cells cultured in low glucose media without DMSO stimulation” value was 4.5 fold. Besides, the urea secretion rate in the data set with ESDE cells [2] (day 22) turned out to be 0.36 μg/hour/106 cells. In the data set with ESDE cells [2] (day forty), this compound came in with a urea secretion rate of 2.45 μg/hour/10^6 cells. In the data set with ESDE cells [3] (day forty), this compound returned an albumin secretion rate of 3.09 μg/hour/10^6 cells. The compound further returned an albumin secretion rate in the data set with ESDE cells [3] (day twenty-two) of 0.34 μg/hour/10^6 cells. In addition, in the data set on ESDE cells [4] (RT-PCR after induction), the “Definitive endoderm marker Sox17 expression” value is “down-regulated” and the “glucose-6-phosphatase (G6pc) mRNA expression” value was “detected”. In the data set with ESDE cells [4], the “Transcriptional expression of tyrosine aminotransferase (Tat)” value is “highest at day thrity”; the “expression of albumin (Alb) and cytochrome P450 subunit 3a13 (Cyp3a13) mRNA” value is listed as “could be detected by day twenty-two”. For the same compound, in the data set on ESDE cells [5], the “glycogen stores (periodic acid-Schiff stain)” value is “visible glycogen stores”.

As to `CCCCC[C@H](O)/C=C/[C@H]1[C@H](O)CC(=O)[C@@H]1C/C=C\CCCC(=O)O` [PGE2, prostaglandin E2], in data set [6], the “Cell fraction of day 30 ES-derived cells positive for albumin promoter-driven GFP expression, High Glucose” value stood at 7.8% and the “Cell fraction of day 30 ES-derived cells positive for albumin promoter-driven GFP expression, Low Glucose” value is reported as 57%.

Consider `CC1=C(/C=C/C(C)=C/C=C/C(C)=C/C(=O)O)C(C)(C)CCC1` [Retinoic Acid, all-trans retinoic acid], for which the “glucose-6-phosphatase (G6pc) mRNA expression” value with ESDE cells [4] (RT-PCR after induction) is given as “detected”. Further, in the data set with ESDE cells [4], the “Transcriptional expression of tyrosine aminotransferase (Tat)” value was “highest at day thrity”; the “expression of albumin (Alb) and cytochrome P450 subunit 3a13 (Cyp3a13) mRNA” value is listed as “could be detected by day twenty-two”.

Take `NC(=O)CC[C@@H]1NC(=O)[C@H](Cc2ccccc2)NC(=O)[C@H](Cc2ccc(O)cc2)NC(=O)[C@@H](N)CSSC[C@@H](C(=O)N2CCC[C@H]2C(=O)N[C@@H](CCCN=C(N)N)C(=O)NCC(N)=O)NC(=O)[C@H](CC(N)=O)NC1=O` [vasopressin]: in data set [6], the “Cell fraction of day 30 ES-derived cells positive for albumin promoter-driven GFP expression, High Glucose” value was 4.5% and the “Cell fraction of day 30 ES-derived cells positive for albumin promoter-driven GFP expression, Low Glucose” value stood at 59%.
